Where two headings read alike, the source gives them in different places.
Assays:
[1] = system: P-gp; conditions: cited from earlier work
[2] = target: T1, P-gp (Homo sapiens, UniProt P08183); test: Calcein-AM efflux assay in KB CH^R 8-5 cells; conditions: for Calcein-AM Efflux % inhibition: 10 μM compound, 0.5 μM calcein-AM, 10 min, 37 °C; for P-gp efflux inhibitory activity (in words): calcein-AM and rhodamine 123 assays, 10 μM (Table 4); for inhibition at 10 min, 10 μM / inhibition at 10 µM: human, KB CH^R 8-5 cells; for inhibition at 10 µM: probe calcein-AM (0.5 μg/ml) and rhodamine 123 (0.5 μg/ml)
T1 sequence (P08183 whole entry): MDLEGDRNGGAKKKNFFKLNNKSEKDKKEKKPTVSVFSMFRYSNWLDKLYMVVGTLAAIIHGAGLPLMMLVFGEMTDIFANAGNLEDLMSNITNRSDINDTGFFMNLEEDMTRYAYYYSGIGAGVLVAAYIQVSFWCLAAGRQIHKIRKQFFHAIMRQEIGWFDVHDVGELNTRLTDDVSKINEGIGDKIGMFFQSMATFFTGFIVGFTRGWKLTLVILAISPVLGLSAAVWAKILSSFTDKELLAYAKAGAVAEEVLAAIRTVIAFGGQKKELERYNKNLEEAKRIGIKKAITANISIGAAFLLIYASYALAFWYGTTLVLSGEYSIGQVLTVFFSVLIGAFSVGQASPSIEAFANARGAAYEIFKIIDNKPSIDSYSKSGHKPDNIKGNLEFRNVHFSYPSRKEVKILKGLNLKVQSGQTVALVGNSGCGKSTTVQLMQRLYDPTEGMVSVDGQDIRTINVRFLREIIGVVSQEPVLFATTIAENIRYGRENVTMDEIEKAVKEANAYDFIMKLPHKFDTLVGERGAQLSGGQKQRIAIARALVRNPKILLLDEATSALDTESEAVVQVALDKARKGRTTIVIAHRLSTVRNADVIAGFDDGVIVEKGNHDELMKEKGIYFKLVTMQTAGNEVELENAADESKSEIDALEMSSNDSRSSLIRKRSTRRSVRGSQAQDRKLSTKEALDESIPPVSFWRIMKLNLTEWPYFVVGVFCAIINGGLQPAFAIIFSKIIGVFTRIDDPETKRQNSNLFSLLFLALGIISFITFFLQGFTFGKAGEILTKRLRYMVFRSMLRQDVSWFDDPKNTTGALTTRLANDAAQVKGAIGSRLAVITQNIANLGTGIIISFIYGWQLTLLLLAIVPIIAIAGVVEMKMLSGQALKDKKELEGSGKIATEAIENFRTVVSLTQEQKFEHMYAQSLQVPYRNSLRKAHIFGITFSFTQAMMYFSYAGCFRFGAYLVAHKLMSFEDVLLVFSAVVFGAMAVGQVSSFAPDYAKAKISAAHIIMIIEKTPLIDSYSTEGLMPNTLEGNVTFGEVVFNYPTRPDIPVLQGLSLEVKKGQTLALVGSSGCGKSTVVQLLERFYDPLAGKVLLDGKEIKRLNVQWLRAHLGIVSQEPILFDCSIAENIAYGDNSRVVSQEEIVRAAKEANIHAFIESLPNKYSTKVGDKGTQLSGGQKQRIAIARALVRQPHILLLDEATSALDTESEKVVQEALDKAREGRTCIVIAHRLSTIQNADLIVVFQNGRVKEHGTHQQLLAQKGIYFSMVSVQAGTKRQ

[3] = target: T1, P-gp; test: Rhodamine 123 efflux assay in KB CH^R 8-5 cells; conditions: for Rh123 % inhibition: 10 μM compound, 0.5 μg/ml rhodamine 123, 45 min, 37 °C; for inhibition at 45 min, 10 µM: human, KB CH^R 8-5 cells, probe rhodamine 123 (0.5 μg/ml)
[4] = target: T1, P-gp
[5] = target: T1, P-gp; test: in vitro
[6] = system: KB 3-1 cells; test: MTT cytotoxicity of paclitaxel with or without reversal agent, parental cells; type: cell-based
[7] = system: KB CH^R 8-5 cells; type: cell-based
[8] = system: parental and P-gp overexpressing cell lines; test: Cytotoxicity assay of quercetin and rutin alone; type: cell-based; conditions: concentrations up to 10 μM, flavonoid alone
[9] = read-out: Actual IC50 (Literature) (A), ref Literature (source not given)

inhibition at 10 min, 10 μM [2] | inhibition at 45 min, 10 µM [3] | SMILES | IC50 [1, 9] | P-gp efflux inhibitory activity (in words) [2] | further results
 |  | Oc1cc(O)c2c(c1)O[C@H](c1ccc(O)c(O)c1)[C@@H](O)C2 [(+)-Catechin] | 50 µM |  | 
 |  | O=C(O[C@@H]1Cc2c(O)cc(O)cc2O[C@@H]1c1ccc(O)c(O)c1)c1cc(O)c(O)c(O)c1 [(-)-Epicatechin 3-gallate] | 15.1 µM |  | Calcein-AM Efflux % inhibition [2]: 83.25%; Rh123 % inhibition [3]: 80.56%; IC50 [4]: 33 µM; P-gp efflux inhibitory activity (in words) [4]: moderate inhibitory activity
 |  | Oc1cc(O)c2c(c1)O[C@H](c1ccc(O)c(O)c1)[C@H](O)C2 [(-)-Epicatechin] | 0.4 µM |  | 
 |  | O=C(O[C@@H]1Cc2c(O)cc(O)cc2O[C@@H]1c1cc(O)c(O)c(O)c1)c1cc(O)c(O)c(O)c1 [(-)-Epigallocatechin gallate] | 43.8 µM |  | 
39.5% | 35% | O=c1cc(-c2ccc(O)cc2)oc2cc(O)cc(O)c12 [Apigenin] | 10 µM | low inhibitory activity | 
 |  | O=c1cc(-c2ccccc2)oc2cc(O)cc(O)c12 [Chrysin] | 1.5 µM |  | 
 |  | COc1cc(/C=C/C(=O)CC(=O)/C=C/c2ccc(O)c(OC)c2)ccc1O [Curcumin] | 1 µM |  | 
 |  | COc1cccc2c1C(=O)c1c(O)c3c(c(O)c1C2=O)C[C@@](O)(C(C)=O)C[C@@H]3O[C@H]1C[C@H](N)[C@H](O)[C@H](C)O1 [Daunorubicin, reference compound] | 1 µM |  | 
 |  | COc1cccc2c1C(=O)c1c(O)c3c(c(O)c1C2=O)C[C@@](O)(C(=O)CO)C[C@@H]3O[C@H]1C[C@H](N)[C@H](O)[C@H](C)O1 [Doxorubicin, reference compound] | 0.04 µM |  | 
 |  | Oc1cc(O)c2c(c1)O[C@H](c1cc(O)c(O)c(O)c1)[C@H](O)C2 [Epigallocatechin] |  |  | IC50 [1]: 118 µM
 |  | O=C1C[C@@H](c2ccc(O)c(O)c2)Oc2cc(O)cc(O)c21 [Eriodictyol] | 50 µM |  | 
16.8% | 13.1% | O=c1c(O)c(-c2ccc(O)c(O)c2)oc2cc(O)ccc12 [Fistein, Fisetin] | 16 µM | low inhibitory activity | inhibition at 10 µM [2]: ≤ 15%
 |  | Oc1cc(O)c2c(c1)O[C@H](c1cc(O)c(O)c(O)c1)[C@@H](O)C2 [Gallocatechin] |  |  | IC50 [1]: 136 µM
 |  | O=c1c(-c2ccc(O)cc2)coc2cc(O)cc(O)c12 [Genistein] |  |  | IC50 [1]: 6.9 µM
 |  | COc1cc2c(=O)c(-c3ccc(O)cc3)coc2cc1O [Glycitein] | 5.99 µM |  | 
 |  | COc1ccc([C@@H]2CC(=O)c3c(O)cc(O[C@@H]4O[C@H](CO[C@@H]5O[C@@H](C)[C@H](O)[C@@H](O)[C@H]5O)[C@@H](O)[C@H](O)[C@H]4O)cc3O2)cc1O [Hesperidin] | 6.2 µM | low inhibitory activity | Calcein-AM Efflux % inhibition [2]: 29.58%; Rh123 % inhibition [3]: 21.09%
 |  | COc1ccc([C@@H]2CC(=O)c3c(O)cc(O)cc3O2)cc1O [Hesperitin] | 20 µM |  | 
 |  | COc1cc(-c2oc3cc(O)cc(O)c3c(=O)c2O)ccc1O [Isorhamnetin] |  |  | IC50 [1]: 0.34 µM; P-gp efflux inhibitory activity (in words) [4]: low inhibitory activity; Calcein-AM Efflux % inhibition ([4]; human): 23.05%; inhibition at 10 µM [5]: 19.5%

inhibition at 10 min, 10 μM [2] | inhibition at 45 min, 10 µM [3] | SMILES | IC50 [1, 9] | P-gp efflux inhibitory activity (in words) [2] | further results
33.8% | 25.1% | O=c1c(O)c(-c2ccc(O)cc2)oc2cc(O)cc(O)c12 [Kaempferol] | 4.8 µM | low inhibitory activity | 
12.6% | 11.5% | O=c1cc(-c2ccc(O)c(O)c2)oc2cc(O)cc(O)c12 [Luteolin] |  | low inhibitory activity | inhibition at 10 µM [2]: ≤ 15%; IC50 [1]: 0.8 µM
42.8% | 40.5% | O=c1c(O)c(-c2ccc(O)cc2O)oc2cc(O)cc(O)c12 [Morin] | 8.1 µM | low inhibitory activity | 
 |  | O=C1C[C@@H](c2ccc(O)cc2)Oc2cc(O)cc(O)c21 [Naringenin] | 16 µM |  | 
70.2% | 75.6% | C[C@@H]1O[C@@H](O[C@H]2[C@H](Oc3cc(O)c4c(c3)O[C@H](c3ccc(O)cc3)CC4=O)O[C@H](CO)[C@@H](O)[C@@H]2O)[C@H](O)[C@H](O)[C@H]1O [Naringin] |  | moderate inhibitory activity | 
 |  | COc1cc2oc(-c3ccccc3)cc(=O)c2c(O)c1O [Negletein] |  |  | IC50 [1]: 6.4 µM
 |  | CC(=O)O[C@H]1C(=O)[C@@]2(C)[C@H]([C@H](OC(=O)c3ccccc3)[C@]3(O)C[C@H](OC(=O)[C@H](O)[C@@H](NC(=O)c4ccccc4)c4ccccc4)C(C)=C1C3(C)C)[C@]1(OC(C)=O)CO[C@@H]1C[C@@H]2O [Paclitaxel] | 1.2 µM |  | IC50 ([6]; Homo sapiens, KB 3-1, read-out: IC50 ± SEM of paclitaxel): 40 ± 10 nM; FR (fold-resistance) ([6]; KB 3-1, paclitaxel alone): [1.0]; FR (fold-resistance) ([7]; KB Ch^R 8-5, paclitaxel alone, vs KB 3-1): [50.0]; IC50 ([7]; read-out: IC50 ± SEM of paclitaxel): 2000 ± 200 nM
46% | 47.2% | Oc1ccc(-c2[o+]c3cc(O)cc(O)c3cc2O)cc1 [Pelargonidin] | 14 µM | moderate inhibitory activity | 
 |  | O=C1C[C@@H](c2ccccc2)Oc2cc(O)cc(O)c21 [Pinocembrin] | 5.8 µM |  | 
 |  | COc1cc(O)c2c(c1)O[C@H](c1ccccc1)CC2=O [Pinostrobin] | 5.4 µM |  | 
 |  | COc1cc(O)c2c(=O)c(-c3ccc(O)cc3)coc2c1 [Prunetin] | 6.4 µM |  | 
 |  | O=c1c(O)c(-c2ccc(O)c(O)c2)oc2cc(O)cc(O)c12 [Quercetin, 2-(3,4-dihydroxyphenyl)-3,5,7-trihydroxy-4H-chromen-4-one] |  |  | cell survival [8]: > 85%
 |  | C[C@@H]1O[C@@H](OC[C@H]2O[C@@H](Oc3c(-c4ccc(O)c(O)c4)oc4cc(O)cc(O)c4c3=O)[C@H](O)[C@@H](O)[C@@H]2O)[C@H](O)[C@H](O)[C@H]1O [Rutin, 2-(3,4-dihydroxyphenyl)-5,7-dihydroxy-3-[α-L-rhamnopyranosyl-(1→6)-β-D-glucopyranosyloxy]-4H-chromen-4-one] |  |  | cell survival [8]: > 85%
 |  | Oc1ccc2c(c1)OCO2 [Sesamol] | 0.3 µM |  | 
 |  | COc1cc(C2Oc3cc([C@H]4Oc5cc(O)cc(O)c5C(=O)[C@@H]4O)ccc3OC2CO)ccc1O (some centres unmarked) [Silibinin] | 3.4 µM | moderate inhibitory activity | Calcein-AM Efflux % inhibition [2]: 63.75%; inhibition at 10 µM [5]: 71.4%
78.7% | 77.2% | COc1ccc(-c2oc3cc(O)cc(O)c3c(=O)c2O)cc1O [Tamarixetin] | 10 µM | moderate inhibitory activity | IC50 [2]: 46 µM
 |  | COc1ccc(-c2cc(=O)c3c(OC)c(OC)c(OC)c(OC)c3o2)cc1 [Tangeritin] | 3 µM | low inhibitory activity | Calcein-AM Efflux % inhibition [2]: 14.23%; inhibition in calcein-AM and rhodamine-123 assays ([2]; 10 μM concentration, both calcein-AM and rhodamine-123 assay data): ≤ 15%; Rh123 % inhibition [3]: 12.76%

SMILES | inhibition at 10 min, 10 μM [2] | inhibition at 45 min, 10 µM [3] | IC50 [1, 9] | P-gp efflux inhibitory activity (in words) [2] | further results
O=c1cc(-c2ccccc2)oc2cc(O)c(O)c(O)c12 [Baicalein] | 11% | 7.54% | 1.5 µM | low inhibitory activity | inhibition at 10 µM [2]: ≤ 15%
O=c1c(O[C@@H]2O[C@H](CO)[C@@H](O)[C@H](O)[C@H]2O)c(-c2ccc(O)c(O)c2)oc2cc(O)cc(O)c12 [Isoquercitrin] | 19.8% | 18.4% | 24.3 µM | low inhibitory activity | 
O=c1c(O)c(-c2cc(O)c(O)c(O)c2)oc2cc(O)cc(O)c12 [Myricetin] | 57.2% | 55.8% | 5.9 µM | moderate inhibitory activity | 
COc1cc(O)c2c(=O)c(OC)c(-c3ccc(OC)c(OC)c3)oc2c1 [Retusin] | 6.43% | 3.06% | 12 µM | low inhibitory activity | inhibition at 10 µM [2]: ≤ 15%
O=c1c(O)cc([C@H]2Oc3cc(O)cc(O)c3C[C@H]2O)cc2c([C@H]3Oc4cc(O)cc(O)c4C[C@H]3O)cc(O)c(O)c12 [Theaflavine] | 88.8% | 83.2% | 60 µM | very effective P-gp efflux inhibitory activity | IC50 [2]: 20 µM

Source: paper PMC4955727 (Molecular bioSystems, 2016)
